Reference: patent publication US6743802B2, “Alkyne-aryl phosphodiesterase-4 inhibitors” (Merck Frosst Canada & Co., priority 2001, dated 2004)

Tested on: TNF-α and LTB4
Assay: LPS and FMLP-induced TNF-α and LTB4 assays in human whole blood
Type: cell-based
Conditions: LPS 1 μg/mL 24 h, then LPS and fMLP 1 μM challenge, marker (TNF-α or LTB4) not specified
Experimental: Whole blood provides a protein and cell-rich milieu appropriate for the study of biochemical efficacy of anti-inflammatory compounds such as PDE4-selective inhibitors. […] Upon stimulation with LPS, activated monocytes express and secrete TNF-α up to 8 hours and plasma levels remain stable for 24 hours. Published studies have shown that inhibition of TNF-α by increasing intracellular cAMP via PDE4 inhibition and/or enhanced adenylyl cyclase activity occurs at the transcriptional level. […] As there is little LTB4 produced during a 24 hour LPS stimulation of whole blood, an additional LPS stimulation followed by fMLP challenge of human whole blood is necessary for LTB4 synthesis by activated neutrophils. Thus, by using the same blood sample, it is possible to evaluate the potency of a compound on two surrogate markers of PDE4 activity in the whole blood by the following procedure.
Fresh blood was collected in heparinized tubes by venipuncture from healthy human volunteers (male and female). These subjects had no apparent inflammatory conditions and had not taken any NSAIDs for at least 4 days prior to blood collection. 500 μL aliquots of blood were pre-incubated with either 2 μL of vehicle (DMSO) or 2 μL of test compound at varying concentrations for 15 minutes at 37° C. […]

CC(C)NC(=O)c1cn(-c2cccc(C#Cc3cccc(C(C)(C)O)n3)c2)c2ncccc2c1=O [Example 28, N-Isopropyl-1-{3-[6-(1-hydroxy-1-methylethyl)-2-pyridinylethynyl]phenyl}-1,4-dihydro [1,8]naphthyridin-4-one-3-carboxamide]
IC50: 0.01 to 2.4 µM
